Legend:
Cytochrome P450 1A2 = target: T1, Cytochrome P450 1A2 (Homo sapiens, UniProt P05177); assay: Inhibition of human CYP1A2 expressed in Escherichia coli DH5-alpha; assay type: ADME
T1 sequence (P05177 whole entry): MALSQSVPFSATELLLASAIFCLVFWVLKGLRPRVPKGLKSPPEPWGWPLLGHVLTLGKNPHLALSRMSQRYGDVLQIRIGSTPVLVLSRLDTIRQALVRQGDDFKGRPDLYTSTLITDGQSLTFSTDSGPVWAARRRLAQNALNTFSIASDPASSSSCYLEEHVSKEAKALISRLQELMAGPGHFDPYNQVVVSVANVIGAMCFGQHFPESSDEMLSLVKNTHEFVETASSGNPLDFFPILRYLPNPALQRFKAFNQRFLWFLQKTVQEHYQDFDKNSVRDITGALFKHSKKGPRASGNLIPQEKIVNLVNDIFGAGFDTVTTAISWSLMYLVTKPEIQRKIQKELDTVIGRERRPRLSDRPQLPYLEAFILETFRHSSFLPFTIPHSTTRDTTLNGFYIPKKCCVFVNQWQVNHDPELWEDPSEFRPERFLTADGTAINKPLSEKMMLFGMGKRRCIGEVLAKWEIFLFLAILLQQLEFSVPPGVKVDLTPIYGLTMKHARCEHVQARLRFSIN

[1] = Volume of distribution in diet-induced obese mouse at 5 mg/kg, po or 1 mg/kg, iv; assay type: ADME, organism-based; settings: in vivo
[2] = Half life in diet-induced obese mouse at 5 mg/kg, po or 1 mg/kg, iv; assay type: ADME, organism-based; settings: in vivo
Mus musculus [3] = assay: AUC in diet-induced obese mouse at 5 mg/kg, po; assay type: ADME, organism-based; settings: in vivo
Mus musculus [4] = assay: Antiobesity activity in po dosed diet-induced obese mouse assessed as body weight loss administered as qd for 28 days; assay type: functional, organism-based
[5] = target: Methionine aminopeptidase 2 (Homo sapiens, UniProt P50579); assay: Inhibition of MetAP2 in HUVEC assessed as accumulation of N-Met-14-3-3gamma after 24 hrs by Western blot method; assay type: cell-based
Mus musculus [6] = assay: Oral bioavailability in diet-induced obese mouse at 5 mg/kg; assay type: ADME, organism-based; settings: in vivo

Sequence of Methionine aminopeptidase 2 (P50579 whole entry): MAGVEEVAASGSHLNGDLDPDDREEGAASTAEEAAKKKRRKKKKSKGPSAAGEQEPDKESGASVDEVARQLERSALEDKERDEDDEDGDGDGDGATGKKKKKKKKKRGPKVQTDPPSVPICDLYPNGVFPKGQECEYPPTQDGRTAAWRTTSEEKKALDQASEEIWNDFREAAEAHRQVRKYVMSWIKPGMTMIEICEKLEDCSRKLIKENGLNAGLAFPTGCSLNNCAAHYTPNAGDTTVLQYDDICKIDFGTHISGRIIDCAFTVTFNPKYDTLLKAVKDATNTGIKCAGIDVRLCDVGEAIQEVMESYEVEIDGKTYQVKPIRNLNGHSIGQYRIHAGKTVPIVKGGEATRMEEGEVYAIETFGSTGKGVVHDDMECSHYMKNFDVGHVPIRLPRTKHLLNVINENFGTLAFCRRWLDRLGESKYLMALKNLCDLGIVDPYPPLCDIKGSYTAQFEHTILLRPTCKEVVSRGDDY

IC50 (Cytochrome P450 1A2) [µM]	Structure (SMILES)	further results
0.316	FC(F)(F)c1cc(-c2ccc3nccn3c2)c2cn[nH]c2c1	–
> 50.1	Cc1cc(C(=O)NCCO)ncc1-c1cc(C(F)(F)F)cc2[nH]ncc12	–

Second part, the compound before the results:

Structure (SMILES)	IC50 (Cytochrome P450 1A2) [µM]	further results
O=C(NCCO)c1ccc(-c2cc(C(F)(F)F)cc3[nH]ncc23)c(F)c1	> 50.1	–
CNC(=O)c1ccc(-c2cc(C(F)(F)F)cc3[nH]ncc23)c(OC)c1	15.8	–
Cc1nc(N2CC[C@@H](O)C2)ncc1-c1cc(C(F)(F)F)cc2[nH]ncc12 [TP-004]	> 50.1	Vd [1]: 1.25 L/kg; half-life [2]: 2 h; AUC (Mus musculus [3]): 15084 ng·h/mL; Activity (Mus musculus [4]): Dose-dependent effect; EC50 [5]: 0.015 µM; F (Mus musculus [6]): 58%
Cc1nc(N2CC[C@H](O)C2)ncc1-c1cc(C(F)(F)F)cc2[nH]ncc12	> 50.1	EC50 [5]: 0.121 µM
COc1cc(C(=O)NCCO)ccc1-c1cc(C(F)(F)F)cc2[nH]ncc12	> 50.1	–
